Laboratory results as given in patent publication US20250122223A1, “HETEROCYCLIC COMPOUNDS AS UBIQUITIN SPECIFIC PROTEASE 7 INHIBITORS” (ALMAC DISCOVERY LIMITED, priority 2022, published 2025).
Where two headings read alike, the source gives them in different places.

Target: USP7 (Homo sapiens (Human), UniProt Q93009)
Test: USP7 fluorescence polarisation (FP) assay with ubiquitin-Lys-TAMRA substrate
Type: biochemical
Settings: biochemical inhibition
Experimental: USP7 activity was monitored in a fluorescence polarisation (FP) homogeneous assay using the isopeptide ubiquitin-Lys-TAMRA substrate (U-558, Boston Biochem). Full-length USP7 was purchased from Boston Biochem (His6-USP7FL, E-519). Unless otherwise stated, all other reagents were purchased from Sigma-Aldrich. Enzymatic reactions were conducted in black flat-bottom low volume polystyrene 384-well plates (Grenier) and 15 μL total volume. USP7 (2.5 nM, 5 μL) was incubated in assay buffer (50 mM HEPES (pH 7.2), 150 mM NaCl, 5 mM DTT, 0.05% BSA (w/v), 0.05% CHAPS) in the presence or absence of inhibitor (5 μL). Inhibitors were stored as 10 mM DMSO stocks in an inert environment (low humidity, dark, low oxygen, room temperature) using a Storage Pod System and serial dilutions were prepared in buffer just prior to the assay (from 200 to 0.003 μM, 11 dp curve). Following incubation at room temperature for 30 min, the enzymatic reactions were initiated by dispensing the Ub substrate (50 nM, 5 μL). FP was measured every 5 min over a period of 1.5 h (within the linear range of the assay) using a Pherastar FSX (BMG Labtech) exciting at 530 nm and measuring the amount of parallel and perpendicular light at 575 nm. The FP signal was subsequently normalised to the control without compound present. Data were plotted and fitted, and the concentrations resulting in 50% inhibition (IC50) were calculated using the non-linear regression curve fitting model using GraphPad Prism.

[1] = read-out: USP7 IC50 activity (Table 3a, classes)
[2] = unit not given in Table 3b (Table 1 and key of Table 3a use μM), read-out: USP7 IC50 activity (Table 3b)

Sequence of USP7 (Q93009 whole entry): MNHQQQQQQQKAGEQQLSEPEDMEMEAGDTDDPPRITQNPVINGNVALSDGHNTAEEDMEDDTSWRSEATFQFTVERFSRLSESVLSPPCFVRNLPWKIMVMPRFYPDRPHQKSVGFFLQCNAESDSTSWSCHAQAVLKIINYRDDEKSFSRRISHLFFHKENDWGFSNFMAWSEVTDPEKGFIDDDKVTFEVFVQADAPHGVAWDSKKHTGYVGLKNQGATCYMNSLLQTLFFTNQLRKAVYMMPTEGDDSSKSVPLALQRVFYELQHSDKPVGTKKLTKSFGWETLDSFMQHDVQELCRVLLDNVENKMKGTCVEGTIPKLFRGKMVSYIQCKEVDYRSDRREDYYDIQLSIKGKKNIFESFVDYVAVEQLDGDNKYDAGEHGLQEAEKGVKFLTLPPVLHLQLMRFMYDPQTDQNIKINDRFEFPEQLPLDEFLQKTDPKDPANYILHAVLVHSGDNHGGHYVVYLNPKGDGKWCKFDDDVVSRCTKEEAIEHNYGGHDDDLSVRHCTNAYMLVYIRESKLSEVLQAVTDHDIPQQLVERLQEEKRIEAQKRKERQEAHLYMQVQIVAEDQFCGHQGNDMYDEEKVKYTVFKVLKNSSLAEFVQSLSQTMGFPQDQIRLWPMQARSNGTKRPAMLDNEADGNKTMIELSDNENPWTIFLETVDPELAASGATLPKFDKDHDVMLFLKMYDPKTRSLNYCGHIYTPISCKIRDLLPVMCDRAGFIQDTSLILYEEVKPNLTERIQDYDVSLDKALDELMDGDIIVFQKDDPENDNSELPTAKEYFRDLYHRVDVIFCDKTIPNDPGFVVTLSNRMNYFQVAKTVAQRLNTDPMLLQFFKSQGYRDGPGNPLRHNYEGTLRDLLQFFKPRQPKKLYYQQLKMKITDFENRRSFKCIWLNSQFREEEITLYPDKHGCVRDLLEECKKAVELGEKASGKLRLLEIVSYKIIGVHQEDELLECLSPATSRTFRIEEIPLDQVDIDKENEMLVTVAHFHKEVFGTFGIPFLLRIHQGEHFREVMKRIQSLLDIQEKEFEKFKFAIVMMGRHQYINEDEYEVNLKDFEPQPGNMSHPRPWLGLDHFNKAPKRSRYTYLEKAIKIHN

SMILES | IC50 [1] [µM] | IC50 [2] [µM]
C[C@@H]1CN[C@@H](c2ccc(-n3c(Cl)cc4c(=O)n(CC5(O)CCN(C(=O)[C@@]6(C)C[C@@H]6C(F)(F)F)CC5)cnc43)cc2)CO1 [Example 109, 6-Chloro-3-((4-hydroxy-1-((1S,2S)-1-methyl-2-(trifluoromethyl)cyclopropane-1-carbonyl)piperidin-4-yl)methyl)-7-(4-((3S,6R)-6-methylmorpholin-3-yl)phenyl)-3,7-dihydro-4H-pyrrolo[2,3-d]pyrimidin-4-one] | 0.1 to 0.25 | 0.182
CC1(C(=O)N2CCC(O)(Cn3cnc4c(cc(Cl)n4-c4ccc([C@H]5CO[C@H](C6CC6)CN5)cc4)c3=O)CC2)CC1 [Example 104, 6-Chloro-7-(4-((3S,6R)-6-cyclopropylmorpholin-3-yl)phenyl)-3-((4-hydroxy-1-(1-methylcyclopropane-1-carbonyl)piperidin-4-yl)methyl)-3,7-dihydro-4H-pyrrolo[2,3-d]pyrimidin-4-one] | < 0.1 | 0.094
C[C@H]1CN[C@H](c2ccc(-n3c(Cl)cc4c(=O)n(CC5(O)CCN(C(=O)C6(C7CC7)CC6)CC5)cnc43)cc2)CO1 [Example 42, 3-((1-([1,1′-Bi(cyclopropane)]-1-carbonyl)-4-hydroxypiperidin-4-yl)methyl)-6-chloro-7-(4-((3R,6S)-6-methylmorpholin-3-yl)phenyl)-3,7-dihydro-4H-pyrrolo[2,3-d]pyrimidin-4-one] | < 0.1 | 0.091
Cc1cc(-n2c(Cl)cc3c(=O)n(CC4(O)CCN(C(=O)C5(C)CC5)CC4)cnc32)ccc1[C@@H]1COCCN1 (single isomer, unassigned) [Example 74] | 0.1 to 0.25 | 0.112
C[C@H]1CN[C@H](c2ccc(-n3c(Cl)cc4c(=O)n(CC5(O)CCN(C(=O)c6ccc(Cl)cc6)CC5)cnc43)cc2)CO1 [Example 4, 6-Chloro-3-((1-(4-chlorobenzoyl)-4-hydroxypiperidin-4-yl)methyl)-7-(4-((3R,6S)-6-methylmorpholin-3-yl)phenyl)-3,7-dihydro-4H-pyrrolo[2,3-d]pyrimidin-4-one] | 0.1 to 0.25 | 0.222
O=C(N1CCC(O)(Cn2cnc3c(cc(Cl)n3-c3ccc([C@@H]4NC[C@@H]5CC[C@H]4O5)cc3)c2=O)CC1)C1(C2CC2)CC1 [Example 49, 7-(4-((1R,2S,5S)-8-Oxa-3-azabicyclo[3.2.1]octan-2-yl)phenyl)-3-((1-([1,1′-bi(cyclopropane)]-1-carbonyl)-4-hydroxypiperidin-4-yl)methyl)-6-chloro-3,7-dihydro-4H-pyrrolo[2,3-d]pyrimidin-4-one] | 0.1 to 0.25 | 0.223
C[C@H]1CN[C@H](c2ccc(-n3c(Cl)cc4c(=O)n(CC5(O)CCN(C(=O)C6(C)CCC6)CC5)cnc43)cc2)CO1 [Example 102, 6-Chloro-3-((4-hydroxy-1-(1-methylcyclobutane-1-carbonyl)piperidin-4-yl)methyl)-7-(4-((3R,6S)-6-methylmorpholin-3-yl)phenyl)-3,7-dihydro-4H-pyrrolo[2,3-d]pyrimidin-4-one] | < 0.1 | 0.05
C[C@H]1CN[C@H](c2ccc(-n3c(Cl)cc4c(=O)n(CC5(O)CCN(C(=O)C6(C)CC6)CC5)cnc43)cc2)CO1 (racemic) [Example 1, rac-6-Chloro-3-((4-hydroxy-1-(1-methylcyclopropane-1-carbonyl)piperidin-4-yl)methyl)-7-(4-((3R,6S)-6-methylmorpholin-3-yl)phenyl)-3,7-dihydro-4H-pyrrolo[2,3-d]pyrimidin-4-one] | < 0.1 | 0.03
O=C(N1CCC(O)(Cn2cnc3c(cc(Cl)n3-c3ccc([C@@H]4COCCN4)cc3)c2=O)CC1)C1(C2CC2)CC1 (single isomer, unassigned) [Example 80] | < 0.1 | 0.041
CC1(C(=O)N2CCC(O)(Cn3cnc4c(cc(Cl)n4-c4ccc(C5CNCCO5)cc4)c3=O)CC2)CC1 (stereo not shown) [Example 88, 6-Chloro-3-((4-hydroxy-1-(1-methylcyclopropane-1-carbonyl)piperidin-4-yl)methyl)-7-(4-(morpholin-2-yl)phenyl)-3,7-dihydro-4H-pyrrolo[2,3-d]pyrimidin-4-one] | 0.1 to 0.25 | 0.158
O=C(c1ccc(Cl)cc1)N1CCC(O)(Cn2cnc3c(cc(Cl)n3-c3ccc(C4COC5CCCC5N4)cc3)c2=O)CC1 (stereo not shown) [Example 54, 6-Chloro-3-((1-(4-chlorobenzoyl)-4-hydroxypiperidin-4-yl)methyl)-7-(4-(octahydrocyclopenta[b][1,4]oxazin-3-yl)phenyl)-3,7-dihydro-4H-pyrrolo[2,3-d]pyrimidin-4-one] | 0.1 to 0.25 | 0.151
C[C@H]1CN[C@H](c2ccc(-n3c(Cl)cc4c(=O)n(CC5(O)CCN(C(=O)c6ccccc6Cl)CC5)cnc43)cc2)CO1 [Example 31, 6-Chloro-3-((1-(2-chlorobenzoyl)-4-hydroxypiperidin-4-yl)methyl)-7-(4-((3R,6S)-6-methylmorpholin-3-yl)phenyl)-3,7-dihydro-4H-pyrrolo[2,3-d]pyrimidin-4-one] | 0.1 to 0.25 | 0.144
O=C(c1ccc(Cl)cc1)N1CCC(O)(Cn2cnc3c(cc(Cl)n3-c3ccc([C@@H]4COCCN4)cc3)c2=O)CC1 (single isomer, unassigned) [Example 77] | < 0.1 | 0.052
Cc1cc(-n2c(Cl)cc3c(=O)n(CC4(O)CCN(C(=O)c5ccc(Cl)cc5)CC4)cnc32)ccc1[C@H]1CO[C@H](C)CN1 [Example 12, 6-Chloro-3-((1-(4-chlorobenzoyl)-4-hydroxypiperidin-4-yl)methyl)-7-(3-methyl-4-((3S,6R)-6-methylmorpholin-3-yl)phenyl)-3,7-dihydro-4H-pyrrolo[2,3-d]pyrimidin-4-one] | 0.1 to 0.25 | 0.13
O=C(C[C@H](c1ccccc1)C(F)(F)F)N1CCC(O)(Cn2cnc3c(cc(Cl)n3-c3ccc([C@@H]4COCCN4)cc3)c2=O)CC1 (single isomer, unassigned) [Example 81] | < 0.1 | 0.015
O=C(N1CCC(O)(Cn2cnc3c(cc(Cl)n3-c3ccc([C@H]4COCCN4)cc3)c2=O)CC1)C1(C2CC2)CC1 (single isomer, unassigned) [Example 79] | < 0.1 | 0.039
C[C@H]1CN[C@H](c2ccc(-n3c(Cl)cc4c(=O)n(CC5(O)CCN(C(=O)c6cccc(F)c6F)CC5)cnc43)cc2)CO1 [Example 39, 6-Chloro-3-((1-(2,3-difluorobenzoyl)-4-hydroxypiperidin-4-yl)methyl)-7-(4-((3R,6S)-6-methylmorpholin-3-yl)phenyl)-3,7-dihydro-4H-pyrrolo[2,3-d]pyrimidin-4-one] | 0.25 to 2 | 1.15
Cc1cc(-n2c(Cl)cc3c(=O)n(CC4(O)CCN(C(=O)c5ccc(C6(C)CC6)cc5)CC4)cnc32)ccc1[C@H]1CO[C@H](C)CN1 [Example 94, 6-Chloro-3-((4-hydroxy-1-(4-(1-methylcyclopropyl)benzoyl)piperidin-4-yl)methyl)-7-(3-methyl-4-((3S,6R)-6-methylmorpholin-3-yl)phenyl)-3,7-dihydro-4H-pyrrolo[2,3-d]pyrimidin-4-one] | 0.1 to 0.25 | 0.193
CC1(C(=O)N2CCC(O)(Cn3cnc4c(cc(Cl)n4-c4ccc(C5(C)COCCN5)cc4)c3=O)CC2)CC1 (stereo not shown) [Example 3, 6-Chloro-3-((4-hydroxy-1-(1-methylcyclopropane-1-carbonyl)piperidin-4-yl)methyl)-7-(4-(3-methylmorpholin-3-yl)phenyl)-3,7-dihydro-4H-pyrrolo[2,3-d]pyrimidin-4-one] | 0.1 to 0.25 | 0.132
O=C(c1ccc(Cl)cc1)N1CCC(O)(Cn2cnc3c(cc(Cl)n3-c3ccc(C4COCC5(CC5)N4)cc3)c2=O)CC1 (stereo not shown) [Example 18, 7-(4-(7-Oxa-4-azaspiro[2.5]octan-5-yl)phenyl)-6-chloro-3-((1-(4-chlorobenzoyl)-4-hydroxypiperidin-4-yl)methyl)-3,7-dihydro-4H-pyrrolo[2,3-d]pyrimidin-4-one] | 0.25 to 2 | 0.378
C[C@@H]1CN[C@@H](c2ccc(-n3c(Cl)cc4c(=O)n(CC5(O)CCN(C(=O)C[C@H](c6ccccc6)C(F)(F)F)CC5)cnc43)cc2)CO1 [Example 13, 6-Chloro-3-((4-hydroxy-1-((R)-4,4,4-trifluoro-3-phenylbutanoyl)piperidin-4-yl)methyl)-7-(4-((3S,6R)-6-methylmorpholin-3-yl)phenyl)-3,7-dihydro-4H-pyrrolo[2,3-d]pyrimidin-4-one] | < 0.1 | 0.028
CN1CCOCC1c1ccc(-n2c(Cl)cc3c(=O)n(CC4(O)CCN(C(=O)C5(C)CC5)CC4)cnc32)cc1 (stereo not shown) [Example 75, 6-Chloro-3-((4-hydroxy-1-(1-methylcyclopropane-1-carbonyl)piperidin-4-yl)methyl)-7-(4-(4-methylmorpholin-3-yl)phenyl)-3,7-dihydro-4H-pyrrolo[2,3-d]pyrimidin-4-one] | 0.25 to 2 | 2.09
CC1(C)CN[C@@H](c2ccc(-n3c(Cl)cc4c(=O)n(CC5(O)CCN(C(=O)c6ccc(F)cc6)CC5)cnc43)cc2)CO1 (single isomer, unassigned) [Example 28] | 0.1 to 0.25 | 0.218
